Here are results for 39 compounds from patent US20060089499A1, “Pyrazolopyrimidines and the use thereof for controlling harmful organisms” (priority 2002, published 2006).

In one assay the test system is Alternaria solani. Put plainly: Alternaria test (tomato)/protective. In kind it is in vivo. The note with it: protective, application rate 750 g/ha, evaluation 7 days after inoculation. The procedure:
(Tomato)/Protective [table] To produce a suitable preparation of active compound, 1 part by weight of active compound is mixed with the stated amounts of solvent and emulsifier, and the concentrate is diluted with water to the desired concentration. To test for protective activity, young tomato plants are sprayed with the preparation of active compound at the stated application rate. 1 day after the treatment, the plants are inoculated with a spore suspension of Alternaria solani and then remain at 100% rel. humidity and 20° C. for 24 h. The plants then remain at 96% rel. atmospheric humidity and a temperature of 20° C.
For `N#Cc1cnn2c(N3CCOCC3)c(-c3c(F)cccc3Cl)c(Cl)nc12` [drawing 131], the Efficacy in % came to 95%.
The compound `N#Cc1cnn2c(N3CCCCC3)c(-c3c(F)cccc3Cl)c(Cl)nc12` [drawing 132] registered an Efficacy in % of 95%.
Same read-out and setting: in the case of `C=C(C)CN(CC)c1c(-c2c(F)cc(F)cc2F)c(Cl)nc2c(C#N)cnn12` [drawing 134] it was 95%; in that of `C[C@H](Nc1c(-c2c(F)cc(F)cc2F)c(Cl)nc2c(C#N)cnn12)C(F)(F)F` [drawing 135], 95%.
On the same count and under the same terms, in the case of `N#Cc1cnn2c(N3CCC(F)(F)CC3)c(-c3c(F)cc(F)cc3F)c(Cl)nc12` [drawing 136] it was 90%.
Compound `CC(C)CNc1c(-c2ccc(F)cc2F)c(Cl)nc2c(C#N)cnn12` [drawing 133] gave an Efficacy in % of 95%.

Another assay concerns Botrytis cinerea. Description: Botrytis test (bean)/protective. In kind it is in vivo. The note with it: topical, 48 h, protective, application rate 500 g/ha, evaluation 2 days after inoculation, read-out: Efficacy in %. How it is done: Botrytis Test (Bean)/Protective
To produce a suitable preparation of active compound, 1 part by weight of active compound is mixed with the stated amounts of solvent and emulsifier, and the concentrate is diluted with water to the desired concentration. To test for protective activity, young plants are sprayed with the preparation of active compound at the stated application rate. After the spray coating has dried on, 2 small pieces of agar colonized by Botrytis cinerea are placed onto each leaf. The inoculated plants are placed in a dark chamber at about 20° C. and 100% relative atmospheric humidity.
2 days after the inoculation, the size of the infected areas on the leaves is evaluated. 0% means an efficacy which corresponds to that of the control, whereas an efficacy of 100% means that no infection is observed.
Consider `CCC(C)Nc1c(-c2c(F)cc(F)cc2F)c(Cl)nc2c(C#N)cnn12` (stereo not drawn) [drawing 119], for which the pest or weed control at 500 g/ha was 97%.
With `C[C@H](Nc1c(-c2c(F)cccc2Cl)c(Cl)nc2c(C#N)cnn12)C(F)(F)F` [drawing 130], the pest or weed control at 500 g/ha is 100%.
Regarding `Fc1cc(F)c(-c2c(Cl)nc3c(Cl)cnn3c2N2CCC(F)(F)CC2)c(F)c1` [drawing 117], the pest or weed control at 500 g/ha came to 95%.
Regarding `N#Cc1cnn2c(NCC3CC3)c(-c3c(F)cccc3Cl)c(Cl)nc12` [drawing 113], the pest or weed control at 500 g/ha came out at 99%.
For `C=C(C)CN(CC)c1c(-c2c(F)cccc2Cl)c(Cl)nc2c(C#N)cnn12` [drawing 129], the pest or weed control at 500 g/ha is 100%.
For `C[C@H](Nc1c(-c2c(F)cc(F)cc2F)c(Cl)nc2c(C#N)cnn12)C(F)(F)F` [drawing 115], the pest or weed control at 500 g/ha worked out at 99%.

For another assay, the system named is Venturia inaequalis. Description: Venturia test (apple)/protective. The class given is in vivo. The note with it: topical, 240 h, protective, application rate 100 g/ha, evaluation 10 days after inoculation, read-out: Efficacy in %. The procedure: Venturia Test (Apple)/Protective [table] To produce a suitable preparation of active compound, 1 part by weight of active compound is mixed with the stated amounts of solvent and emulsifier, and the concentrate is diluted with water to the desired concentration. To test for protective activity, young plants are sprayed with the preparation of active compound at the stated application rate. After the spray coating has dried on, the plants are inoculated with an aqueous conidia suspension of the apple scab pathogen Venturia inaequalis and then remain in an incubation cabin at about 20° C. and 100% relative atmospheric humidity for 1 day. The plants are then placed in a greenhouse at about 21° C. and a relative atmospheric humidity of about 90%.
`C[C@H](Nc1c(-c2c(F)cc(F)cc2F)c(Cl)nc2c(Cl)cnn12)C(F)(F)F` [drawing 96]: the pest or weed control at 100 g/ha was 98%.
Regarding `C=C(C)CN(CC)c1c(-c2c(F)cccc2Cl)c(Cl)nc2c(C#N)cnn12` [drawing 109], the pest or weed control at 100 g/ha was 100%.
For `N#Cc1cnn2c(N3CCC(F)CC3)c(-c3c(F)cccc3Cl)c(Cl)nc12` [drawing 107], the pest or weed control at 100 g/ha is 98%.
`CC(C)CN(C)c1c(-c2ccccc2Cl)c(Cl)nc2c(C#N)cnn12` [drawing 105]: the pest or weed control at 100 g/ha stood at 100%.
As for `CC(Nc1c(-c2ccc(F)cc2Cl)c(Cl)nc2c(C#N)cnn12)C(F)(F)F` (stereo not drawn) [drawing 103], the pest or weed control at 100 g/ha was found to be 93%.
Consider `CC1CCN(c2c(-c3c(F)cccc3Cl)c(Cl)nc3c(C#N)cnn23)CC1` [drawing 92], for which the pest or weed control at 100 g/ha is 97%.
Still for that read-out and setting: next, `CC(C)[C@@H](C)Nc1c(-c2c(F)cc(F)cc2F)c(Cl)nc2c(C#N)cnn12` [drawing 98]: 100%; `CC1CCN(c2c(-c3ccccc3Cl)c(Cl)nc3c(C#N)cnn23)CC1` [drawing 106]: 99%.
The same measure, in the same setting: in the case of `C[C@H](Nc1c(-c2c(F)cccc2Cl)c(Cl)nc2c(C#N)cnn12)C(F)(F)F` [drawing 110] it was 100%; in that of `CC(C)CN(C)c1c(-c2c(F)cc(F)cc2F)c(Cl)nc2c(C#N)cnn12` [drawing 101], 100%; in that of `C[C@H](Nc1c(-c2ccc(F)cc2Cl)c(Cl)nc2c(C#N)cnn12)C(F)(F)F` [drawing 104], 100%.
Still for that read-out and setting: in the case of `CCC(C)Nc1c(-c2c(F)cc(F)cc2F)c(Cl)nc2c(C#N)cnn12` (stereo not drawn) [drawing 99] it was 100%.
Consider `CC(C)Nc1c(-c2c(F)cc(F)cc2F)c(Cl)nc2c(C#N)cnn12` [drawing 100], for which the pest or weed control at 100 g/ha came to 98%.
As for `Fc1cc(F)c(-c2c(Cl)nc3c(Cl)cnn3c2N2CCC(F)(F)CC2)c(F)c1` [drawing 97], the pest or weed control at 100 g/ha is 100%.
The same measure, in the same setting: in the case of `CC(C)CN(C)c1c(-c2c(F)cccc2Cl)c(Cl)nc2c(C#N)cnn12` [drawing 108] it was 99%; in that of `C[C@H](Nc1c(-c2c(F)cc(F)cc2F)c(Cl)nc2c(C#N)cnn12)C(F)(F)F` [drawing 95], 100%; in that of `C=C(C)CN(CC)c1c(-c2c(F)cc(F)cc2F)c(Cl)nc2c(C#N)cnn12` [drawing 94], 100%.
Still for that read-out and setting: next, `N#Cc1cnn2c(NCC3CC3)c(-c3c(F)cccc3Cl)c(Cl)nc12` [drawing 93]: 100%.
With `C=C(C)CN(C)c1c(-c2c(F)cc(F)cc2F)c(Cl)nc2c(C#N)cnn12` [drawing 102], the pest or weed control at 100 g/ha stood at 100%.

The test system of another assay is diamondback moth (Plutella xyostella). Put plainly: Plutella test (plant-damaging insects). The conditions noted are these: 1000 ppm active compound on synthetic feed, eggs/larvae. In kind it is in vivo. The procedure:
Plutella Test [table] To produce a suitable preparation of active compound, 1 part by weight of active compound is mixed with the stated amount of solvent, and the concentrate is diluted with methanol to the desired concentrations. A stated amount of preparation of active compound of the desired concentration is pipetted onto a standardized amount of synthetic feed. After the methanol has evaporated, about 200-300 eggs of the diamondback moth (Plutella xyostella) are placed onto the feed. After the desired period of time, the kill of the eggs or larvae in % is determined. 100% means that all animals have been killed; 0% means that none of the animals has been killed.
As to `CC(Nc1c(-c2ccc(F)cc2Cl)c(Cl)nc2c(C#N)cnn12)C(F)(F)F` (stereo not drawn) [drawing 144], the “Kill rate in % after 7^d” value is recorded as 100%.

The next assay concerns Fusarium nivale (var. majus). Description: Fusarium nivale (var. majus) test (wheat)/protective. In kind it is in vivo. The conditions noted are these: protective, application rate 500 g/ha, evaluation 6 days after inoculation. How it is done: Fusarium nivale (var. majus) Test (Wheat)/Protective [table] To produce a suitable preparation of active compound, 1 part by weight of active compound is mixed with the stated amounts of solvent and emulsifier, and the concentrate is diluted with water to the desired concentration. To test for protective activity, young plants are sprayed with the preparation of active compound at the stated application rate. After the spray coating has dried on, the plants are sprayed with a conidia suspension of Fusarium nivale (var. majus). The plants are placed in a greenhouse under transparent incubation hoods at a temperature of about 15° C. and a relative atmospheric humidity of about 100%.
The compound `C=C(C)CN(CC)c1c(-c2c(F)cc(F)cc2F)c(Cl)nc2c(C#N)cnn12` [drawing 138] had an Efficacy in % of 100%.
Take `CC(Nc1c(-c2ccc(F)cc2Cl)c(Cl)nc2c(C#N)cnn12)C(F)(F)F` (stereo not drawn) [drawing 137]: the Efficacy in % was 88%.
Consider `C[C@H](Nc1c(-c2c(F)cc(F)cc2F)c(Cl)nc2c(Cl)cnn12)C(F)(F)F` [drawing 139], for which the Efficacy in % was 80%.

For a further assay, the system named is Pyricularia oryzae.
Assay: not given
The class given is in vivo. The conditions noted are these: rice, protective, application rate 500 g/ha, evaluation 6 days after inoculation.
Compound `N#Cc1cnn2c(NCC3CC3)c(-c3c(F)cc(F)cc3F)c(Cl)nc12` [drawing 142] yielded an Efficacy in % of 86%.
Still for that read-out and setting: next, `C[C@H](Nc1c(-c2ccccc2F)c(Cl)nc2c(C#N)cnn12)C(F)(F)F` [drawing 143]: 75%; `C[C@H](Nc1c(-c2c(F)cc(F)cc2F)c(Cl)nc2c(C#N)cnn12)C(F)(F)F` [drawing 141]: 88%.
The same measure, in the same setting: next, `C[C@H](Nc1c(-c2c(F)cc(F)cc2F)c(Cl)nc2c(Cl)cnn12)C(F)(F)F` [drawing 140]: 88%.
